No end group written: not given here.
What was measured:
thromboplastin [1] = target: T1, thromboplastin (Homo sapiens, UniProt P13726); assay: Stability of the inhibitory effect of KRAD-14 following reconstitution; assay type: physicochemical
T1 construct: purchased Gamidor Ltd. (Oxfordshire, U.K.)
Experimental: However, KRAD-14 was effective at concentration as low as 50 nM. Moreover, the inhibition was unstable and completely disappeared after approximately 8 min following reconstitution. This deterioration was partially stabilised by adjusting the pH and addition of 5 nM bovine serum albumin as a stabiliser. However, the inhibitory effect deteriorated rapidly, completely disappearing after 15 min, following reconstitution.

factor Xa = factor Xa (Homo sapiens, UniProt P00742); assay: Influence on factor Xa activity (amidolytic and clotting in factor Xa-deficient plasma); assay type: biochemical
Experimental: Samples (1 ml) of either KRAD-14 peptide (500 nM) or the control peptide 500 nM) were incubated with pre-activated factor Xa (100 nM) at 37° C. and the factor Xa activity measured at the beginning and at intervals up to 60 min as follows. The enzymatic activity of factor Xa was measured by the addition of 100 μl aliquots to 0.45 ml of thrombin substrate (N-benzoyl-ile-glu-gly-arg-p-nitroanilide) (0.26 mM) which was then incubated at 37° C. for exactly 10 min, before the addition of 0.45 ml of 20% (w/v) acetic acid. The absorption was measured at 405 nm against a factor Xa (100 nM) control assayed similarly. The procoagulant activity of factor Xa was measured by the addition of 100 μl of the sample to factor Xa-deficient plasma (100 μl) and […] CACl2 solution and measuring the clotting time. A factor Xa (100 nM) control was included in the assay against which comparisons were made.
Three 1 ml samples containing recombinant KRAD-14 peptide (20 (♦), 40 (▾) and 80 (▪) nM) were mixed with factor Xa (100 nM). […] The rest of the samples were incubated at 37° C. and further 100 μl samples were removed at intervals up to 40 min and measured as before. The activity was measured against a standard curve and the percentage inhibition calculated against the initial factor Xa activity. […]

thromboplastin [2] = target: T1, thromboplastin; assay: Inhibition of thromboplastin in the presence of plasma; assay type: biochemical
Experimental: […] The samples were then assayed by addition of 100 μl of […] CaCl2 solution and measurement on the coagulometer. The percentage inhibition in each case calculated against a similarly treated sample, containing thromboplastin only.

[3] = tested on: factor VII/thromboplastin; assay: Effect on activation and activity of factor VII (clotting in factor VII deficient plasma); assay type: biochemical
Experimental: In order to assess whether the action of KRAD-14 peptide was directed to the proteolytic activity of factor VIIa/thromboplastin or the activation of factor VII by interaction with thromboplastin, first thromboplastin (200 nM) and factor VII (200 nM) were incubated for 10 min in the presence of 25 mM CaCl2, prior to addition of KRAD-14 peptide and a further 10 min incubation. The samples were then assayed by addition to factor VII deficient plasma and measuring the clotting time. Appropriate controls devoid of KRAD-14 peptide were included in each experiment.
In order to assess whether the action of KRAD-14 peptide was directed to the proteolytic activity of factor VIIa/thromboplastin or the activation of factor VII by interaction with thromboplastin, first thromboplastin (200 nM) and factor VII (200 nM) were incubated for 10 min in the presence of 25 mM CaCl2, prior to addition of […] (500 nM) and a further 10 min incubation. In the second experiment thromboplastin, factor VII and factor Xa (100 nM) were pre-incubated for 10 min in the presence of 25 mM CaCl2, prior to addition of KRAD-14 peptide and a further 10 min incubation. The samples were then assayed by addition to factor VII deficient plasma and measuring the clotting time. […] Conversely, it was able to inhibit the activation of the pro-enzyme (inhibition=74%+8) (Table 2). […]

factor V = assay: Influence on factor V procoagulant activity (factor V-deficient plasma); assay type: biochemical; conditions: factor V 1 μM, 37° C., preactivated factor V deficient plasma; read-out: Kdapp, inhibition of coagulation upon pre-incubation with factor V
Experimental: Samples (1 ml) of either KRAD-14 peptide (500 nM) or the control peptide (500 nM) were incubated with pre-activated factor V (100 nM) at 37° C. and the factor V activity measured at the beginning and at intervals up to 60 min as follows. The procoagulant activity of factor V was measured by the addition of 100 μl of the sample to factor V-deficient plasma (100 μl) pre-activated by incubation (2 min) with thromboplastin (200 nM) in the presence of CACl2 (25 mM), and measuring the clotting time. The activity was measured against a standard curve and the percentage inhibition calculated against the initial factor V activity. The curves are typical of data from three separate experiments.
Three 1 ml samples containing recombinant KRAD-14 peptide (20 (♦) 40 (▾) and 80 (▪) nM) were mixed with factor V (1 μM). 100 μl of the each sample was removed immediately and assayed for […] by addition to factor V-deficient plasma, pre-activated by incubation (2 min) with thromboplastin (200 nM) in the presence of CaCl2 (25 mM), and measuring the clotting time. The rest of the samples were incubated at 37° C. and further 100 μl samples were removed at intervals up to 40 min and measured as before. The activity was measured against a standard curve and the percentage inhibition calculated against the initial factor V activity. The curves are typical of data from 3 separate experiments.

T1 sequence (P13726 33-295): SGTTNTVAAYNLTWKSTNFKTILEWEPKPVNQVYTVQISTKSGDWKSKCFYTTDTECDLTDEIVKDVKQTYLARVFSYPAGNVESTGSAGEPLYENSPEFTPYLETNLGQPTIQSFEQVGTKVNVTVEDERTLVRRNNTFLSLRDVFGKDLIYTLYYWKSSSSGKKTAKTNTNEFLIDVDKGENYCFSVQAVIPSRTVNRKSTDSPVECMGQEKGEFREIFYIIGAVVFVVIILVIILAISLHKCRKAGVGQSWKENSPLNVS
Sequence of factor Xa (P00742 235-488 limits assumed): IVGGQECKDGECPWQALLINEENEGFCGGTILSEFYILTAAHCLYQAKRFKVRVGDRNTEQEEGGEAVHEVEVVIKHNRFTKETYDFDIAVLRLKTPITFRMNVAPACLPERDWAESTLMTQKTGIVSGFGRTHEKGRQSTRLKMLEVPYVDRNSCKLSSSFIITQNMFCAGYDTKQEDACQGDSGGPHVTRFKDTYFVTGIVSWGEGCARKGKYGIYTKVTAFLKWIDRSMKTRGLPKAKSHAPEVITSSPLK
Sequence of factor Xa (P00742 41-179 limits assumed): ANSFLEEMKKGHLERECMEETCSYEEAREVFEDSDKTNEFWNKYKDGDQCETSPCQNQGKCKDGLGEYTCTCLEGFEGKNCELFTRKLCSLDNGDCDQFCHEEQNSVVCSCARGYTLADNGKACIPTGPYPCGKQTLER

time after reconstitution at which the inhibition completely disappeared (thromboplastin [1]; no stabiliser): approximately 8 min | time after reconstitution at which the inhibitory effect completely disappeared (thromboplastin [1]; pH adjusted and 5 nM bovine serum albumin added as a stabiliser): 15 min | effect on the amidolytic activity of factor Xa (factor Xa; 500 nM peptide): did not affect | Kd (factor Xa; factor Xa 100 nM, 37° C., factor Xa deficient plasma, read-out: Kdapp, inhibition of coagulation upon pre-incubation with factor Xa): 0.275 µM | influence of plasma on the ability to inhibit thromboplastin activity (in words) (thromboplastin [2]; plasma included during the incubation prior to assaying, peptide 500 nM): did not significantly affect | inhibition of thromboplastin activity in the presence of plasma (thromboplastin [2]; plasma present, 37° C., 2 min incubation): 74% | inhibition of the activation of the pro-enzyme (factor VII) ([3]; thromboplastin 200 nM, factor VII 200 nM, 25 mM CaCl2, peptide 500 nM, 10 min): 74% | Kd (factor V): 0.285 µM
Sequence: KAQSKKNKHRHSTT [KRAD-14]
inhibition of the activity of factor VIIa ([3]; peptide 500 nM added after pre-incubation, further 10 min, factor VII deficient plasma): 12%
